According to patent US6541463B1, “Inhibitors of type 5 and type 3 17β-hydroxysteroid dehydrogenase and methods for their use” (Endorecherche, Inc., priority 1998, dated 2003):

Biological target: T1, glucocorticoid receptor (Rattus norvegicus, UniProt P06536)
T1 construct: from tissue; host or cells: liver cytosol of male Sprague-Dawley rats
T1 sequence (P06536 1-795): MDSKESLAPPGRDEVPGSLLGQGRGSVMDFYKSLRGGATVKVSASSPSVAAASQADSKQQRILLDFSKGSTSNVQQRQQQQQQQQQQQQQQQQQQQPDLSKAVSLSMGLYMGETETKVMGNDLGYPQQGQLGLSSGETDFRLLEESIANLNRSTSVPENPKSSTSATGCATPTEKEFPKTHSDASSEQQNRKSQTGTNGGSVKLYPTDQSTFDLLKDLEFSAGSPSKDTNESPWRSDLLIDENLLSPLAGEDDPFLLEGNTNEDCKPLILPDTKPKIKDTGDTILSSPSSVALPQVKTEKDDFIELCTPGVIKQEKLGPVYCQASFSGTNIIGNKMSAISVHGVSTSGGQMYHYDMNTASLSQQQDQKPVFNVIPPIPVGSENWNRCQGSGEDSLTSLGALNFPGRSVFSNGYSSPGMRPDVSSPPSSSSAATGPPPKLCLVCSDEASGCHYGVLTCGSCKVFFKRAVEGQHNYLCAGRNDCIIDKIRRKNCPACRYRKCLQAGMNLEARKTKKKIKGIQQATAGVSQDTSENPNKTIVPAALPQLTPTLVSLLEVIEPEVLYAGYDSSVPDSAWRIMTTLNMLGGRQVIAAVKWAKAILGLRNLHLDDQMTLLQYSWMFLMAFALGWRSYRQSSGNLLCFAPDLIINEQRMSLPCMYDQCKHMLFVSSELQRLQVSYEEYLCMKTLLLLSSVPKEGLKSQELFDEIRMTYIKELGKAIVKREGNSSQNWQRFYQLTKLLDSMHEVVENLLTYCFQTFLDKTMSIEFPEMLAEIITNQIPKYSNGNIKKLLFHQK
Test: Glucocorticoid receptor assay: inhibition of [3H]-dexamethasone binding, liver cytosol
Conditions: for inhibition at 1 µM: read-out: % Inhibition Glucocorticold Receptor E^−6; for inhibition at 0.01 µM: read-out: % Inhibition Glucocorticold Receptor E^−8
Description: The manner in which the percentage of inhibition is determined is described in “Other Tests; F-Glucocorticoid Receptor Assay”.
[6,7-^3H(N)]-Dexamethasone (39 Ci/mmol) was purchased from New England Nuclear (Lachine, Québec, Canada) while unlabeled dexametasone was obtained from Steraloids (Wilton, N.H.). All other chemicals were of analytical grade.
Stock solutions of the unlabeled steroids were kept at 4° C. in ethanol. The desired steroid solutions were then prepared by appropriate dilution in buffer B (10 mM Tris-HCl, 1.5 mM EDTA, 10 mM α-monothioglycerol, pH 7.4) containing 30% ethanol.
Male Sprague-Dawley rats weighing 200-300 g were obtained from Charles-River Inc. (St-Constant, Québec, Canada). The rats were killed by cervical dislocation and the liver were rapidly removed, dissected free from adhering tissue and frozen on dry-ice. Tissues were kept at −80° C. until use.
All procedures were performed at 4° C. Tissues were eminced and homogenized in 10 vol (w/v) of buffer A (25 mM Tris-HCl, 1.5 mM EDTA, 10 mM α-monothioglycerol, 10% glycerol, 10 mM sodium molybdate, pH 7.4) using a Polytron PT-10 homogenizer (Brinkmann Instruments, Canada) at a setting of 5 for two periods of 10 sec, with intervals of 10 sec for cooling. The homogenate was then centrifuged at 105,000×g for 90 min. The supernatant was used immediately for assay.
Glucocorticoid binding was measured using the dextran-coated charcoal adsorption technique. Incubations were performed at 0-4° C. for 16-18 h using 100 μl of cytosol, 100 μl of [^3H]-Dexamethasone (5 nM final) and 100 μl of unlabeled compounds at the indicated concentrations. Each concentration was done in triplicate. Assay was ended with 300 μl of DCC (2.5% Norit A and 0.25% Dextran T-70 in Buffer B). After 10 min of incubation, tubes were centrifuged at 2,000×g for 10 min. and decanted in vials with 6 ml of BCS liquid scintillation (New England Nuclear, Dupont). The radioactivity was measured in a Beckman counter at a counting efficiency of 35%.

Row | SMILES | inhibition at 1 µM (Table 4′, E^−6) [%] | inhibition at 0.01 µM (Table 4′, E^−8) [%] | further results
1 | COCCOc1ccc2c(c1)C(=O)CC1C2CCC2(C)C1CCC21CCC(C)(C)C(=O)O1 (stereo not drawn) [EM-1408-CS] | 0 | 0 | 
2 | CC1(C)CCC2(CCC3C4CCc5cc(O)c([N+](=O)[O-])cc5C4CCC32C)OC1=O (stereo not drawn) [EM-1125-CS] | 1 | 0 | 
3 | CCOc1ccc2c(c1)CCC1C2CC[C@@]2(C)C1CC[C@@]21CCC(C)(C)C(=O)O1 (stereo partly drawn) [EM-1369, 3-Ethoxy-1,3,5(10)-estratrien-17(R)-spiro-2′-(5′,5′-dimethyl-6′-oxo)-tetrahydropyran] | 2 | 1 | 
4 | COCCOc1ccc2c(c1)CCC1C2CCC2(C)C1CCC21CCC(C)(C)C(=O)O1 [EM-1368-CS, 3-Methoxyethoxy-1,3,5(10)-estratrien-17(R)-spiro-2′-(5′,5′-dimethyl-6′-oxo)-tetrahydropyran] | 3 | 3 | 
5 | COc1ccc(CC(=O)O[C@]2(C(C)=O)CCC3C4C=C(C)C5=CC(=O)C=C[C@]5(C)C4CC[C@@]32C)cc1 (stereo partly drawn) [EM-1291] |  |  | % Inhibition Glucocorticoid Receptor (E^−6): 69%; % Inhibition Glucocorticoid Receptor (E^−8): 1%
6 | COCCOc1cc2c(cc1Cl)C1CCC3(C)C(CCC34CCC(C)(C)C(=O)O4)C1CC2 (stereo not drawn) [EM-1371-CS] | 0 | 1 | 
7 | CC1CCC2(CCC3C4CCc5ccccc5C4CCC32C)OC1=O (stereo not drawn) [EM-1025] | 0 | 0 | 
8 | COc1cc2c(cc1C)C1CCC3(C)C(CCC34CCC(C)(C)C(=O)O4)C1CC2 (stereo not drawn) [EM-1412-CS] | 2 | 0 | 
9 | CC(=O)[C@@]1(OC(=O)CCCCF)CCC2C3C=C(C)C4=CC(=O)CC[C@]4(C)C3CC[C@@]21C (stereo partly drawn) [EM-1195-CS] |  |  | % Inhibition Glucocorticoid Receptor (E^−6): 90%; % Inhibition Glucocorticoid Receptor (E^−8): 3%
10 | COCCOc1cc2c(cc1C(F)(F)F)[C@H]1CC[C@@]3(C)[C@@H](CC[C@@]34CCC(C)(C)C(=O)O4)[C@@H]1CC2 [EM-1438, 3-(2′-Methoxyethoxy)-2-trifluoromethyl-1,3,5(10)-estratrien-17(R)-spiro-2′-(5′,5′-dimethyl-6′-oxo)tetrahydropyran] |  |  | % Inhibition Glucocorticold Receptor E^−6 (Table 4′, E^−6): 0%; % Inhibition Glucocorticold Receptor E^−8 (Table 4′, E^−8): 1%
11 | CC1(C)CC[C@@]2(CC[C@H]3[C@@H]4CCc5c(cc(Br)c(O)c5Br)[C@H]4CC[C@@]32C)OC1=O [EM-1382-CS] |  |  | % Inhibition Glucocorticold Receptor E^−6 (Table 4′, E^−6): 4%; % Inhibition Glucocorticold Receptor E^−8 (Table 4′, E^−8): 2%
12 | CC1(C)CC[C@@]2(CCC3C4CCc5cc6oncc6cc5C4CC[C@@]32C)OC1=O (stereo partly drawn) [EM-1407-CS, 1,3,5(10)-estratrien-(2,3-oximino)-17(R)-spiro-2′-(5′,5′-dimethyl-6′-oxo)tetrahydropyran] | 0 | 0 | 
13 | CC1(C)CCC2(CCC3C4CCc5cc(OS(C)(=O)=O)ccc5C4CCC32C)OC1=O (stereo not drawn) [EM-1365-CS] | 5 | 0 | 
14 | COC(=O)CCCC(=O)O[C@]1(C(C)=O)CC[C@H]2[C@@H]3C=C(C)C4=CC(=O)CC[C@]4(C)[C@H]3CC[C@@]21C [EM-1007, 6-Methyl-4,6-pregnadien-17α-ol-3,20-dione 4′-Carbomethoxybutyrate] |  |  | % Inhibition Glucocorticoid Receptor (E^−6): 0%; % Inhibition Glucocorticoid Receptor (E^−8): 0%
15 | COc1c(Br)cc2c(c1Br)CCC1C2CCC2(C)C1CCC21CCC(C)(C)C(=O)O1 (stereo not drawn) [EM-1385-CS] | 5 | 0 | 
16 | C[C@]12CCC3c4ccc(O)cc4CCC3C1CC[C@@]21CCCC(=O)O1 (stereo partly drawn) [EM-919, 1,3,5(10)-estratrien-3-ol-17(R)-spiro-2′(6′-oxo)tetrahydropyran] |  |  | % Inhibition Glucocorticold Receptor *E^−5 (Table 4′, starred values, E^−5): 33* %; % Inhibition Glucocorticold Receptor *E^−7 (Table 4′, starred values, E^−7): 0* %
17 | CCCC(=O)O[C@]1(C)C(=O)CCC2C3C=C(C)C4=CC(=O)CC[C@]4(C)C3CC[C@@]21C (stereo partly drawn) [EM-1078] |  |  | % Inhibition Glucocorticoid Receptor E^−6 (E^−6): 94%; % Inhibition Glucocorticoid Receptor E^−8 (E^−8): 20%

Row | SMILES | inhibition at 1 µM (Table 4′, E^−6) [%] | inhibition at 0.01 µM (Table 4′, E^−8) [%] | further results
18 | CCCCN(C)C(=O)[C@@]1(OC(C)=O)CCC2C3C=C(C)C4=CC(=O)CC[C@]4(C)C3CC[C@@]21C (stereo partly drawn) [EM-1165] |  |  | % Inhibition Glucocorticoid Receptor (E^−6): 26%; % Inhibition Glucocorticoid Receptor (E^−8): 0%
19 | CC1(C)CCC2(CCC3C4CCc5c(cc(Cl)c(OS(C)(=O)=O)c5Cl)C4CCC32C)OC1=O (stereo not drawn) [EM-1392-CS] | 8 | 0 | 
20 | CC1(C)CC[C@@]2(CCC3C4CCc5cc(F)ccc5C4CC[C@@]32C)OC1=O (stereo partly drawn) [EM-1157-CS] | 0 | 1 | 
21 | C[C@]12CCC3c4cc([N+](=O)[O-])c(O)cc4CCC3C1CC[C@@]21CCCC(=O)O1 (stereo partly drawn) [EM-1124, 2-Nitro-1,3,5(10)-estraetriene-3-ol-17(R)-spiro-2′-(6′-oxo)tetrahydropyran] | 1 | 1 | 
22 | CC12C=CC(=O)C=C1C=CC1C2CCC2(C)C(=O)C3(CCCCC3)CC12 (stereo not drawn) [CS-204] |  |  | % Inhibition Glucocorticoid Receptor E^−6 (E^−6): 0%; % Inhibition Glucocorticoid Receptor E^−8 (E^−8): 0%
23 | CN(C)C(=O)c1ccc2c(c1)CCC1C2CCC2(C)C1CCC21CCC(C)(C)C(=O)O1 (stereo not drawn) [EM-1403] | 0 | 0 | 
24 | CC1(C)CC[C@@]2(CCC3C4CCc5cc(C(=O)O)ccc5C4CC[C@@]32C)OC1=O (stereo partly drawn) [EM-1401, 3-Carboxy-1,3,5(10)-estratrien-17(R)-spiro-2′-(5′,5′-dimethyl-6′-oxo)tetrahydropyran] | 2 | 4 | 
25 | CC1(C)CC[C@@]2(CCC3C4CCc5cc(C(N)=O)ccc5C4CCC32C)OC1=O (stereo partly drawn) [EM-1404] | 0 | 0 | 
26 | CC(=O)O[C@]1(C)C(=O)CCC2C3C=C(C)C4=CC(=O)C=C[C@]4(C)C3CC[C@@]21C (stereo partly drawn) [CS-237] |  |  | % Inhibition Glucocorticoid Receptor E^−6 (E^−6): 69%; % Inhibition Glucocorticoid Receptor E^−8 (E^−8): 7%
27 | COCCOc1cc2c(cc1C#N)C1CC[C@@]3(C)C(CC[C@@]34CCC(C)(C)C(=O)O4)C1CC2 (stereo partly drawn) [EM-1396] | 1 | 0 | 
28 | C[C@]12CCC(=O)C=C1C=C[C@@H]1[C@@H]2CC[C@]2(C)C(=O)C3(CC4CC4C3)C[C@@H]12 (stereo partly drawn) [EM-1299, 4,6-Androstadien-3,17-dione-16-spirobicyclo[3′.1′.0′]-hexane] |  |  | % Inhibition Glucocorticoid Receptor E^−6 (E^−6): 0%; % Inhibition Glucocorticoid Receptor E^−8 (E^−8): 0%
29 | CC1CCC2(CCC3C4CCc5cc(O)c([N+](=O)[O-])cc5C4CCC32C)OC1=O [EM-1131, 2-Nitro-1,3,5(10)-estratrien-3-ol-17(R)-spiro-2′-(5′-methyl-6′-oxo)tetrahydropyran] | 0 | 0 | 
30 | CC1(C)CCC2(CCC3C4CCc5cc(OCCN6CCCCC6)ccc5C4CCC32C)OC1=O [EM-1390-CS, 3-(N-piperidyl-ethyl)-1,3,5(10)-estratrien-17(R)-spiro-2′-(5′,5′-dimethyl-6′-oxo)-tetrahydropyran] | 0 | 2 | 
31 | CC1CCC2(CCC3C4CCc5cc(O)c([N+](=O)[O-])cc5C4CCC32C)OC1=O [EM-1126, 2-Nitro-1,3,5(10)-estratrien-3-ol-17(R)-spiro-2′-(5′-methyl-6′-oxo)tetrahydropyran] |  |  | % Inhibition Glucocorticold Receptor E^−6 (Table 4′, E^−6): 0%; % Inhibition Glucocorticold Receptor E^−8 (Table 4′, E^−8): 0%
32 | CCC[C@@H]1CC2C3C=CC4=CC(=O)CC[C@]4(C)C3CC[C@]2(C)C1=O (stereo partly drawn) [EM-1097] |  |  | % Inhibition Glucocorticoid Receptor E^−6 (E^−6): 0%; % Inhibition Glucocorticoid Receptor E^−8 (E^−8): 0%
33 | COc1ccc2c(c1)C(=O)CC1C3CCC4(CCC(C)(C)C(=O)O4)C3(C)CCC21O (stereo not drawn) [EM-1386] | 0 | 3 | 
